Key:
KRas G12D [1] = biological target: T1, KRas G12D (Homo sapiens, UniProt P01116, G12D); experiment: KRas G12D Surface Plasmon Resonance (SPR) Binding Assay; conditions: Biacore T200, biotinylated Avidin-tagged KRAS protein on SA chip, 20 C, 1:1 binding model
Protocol: This Example illustrates that exemplary compounds of the present invention bind to KRas G12D as measured by surface plasmon resonance (SPR). Briefly, 1 L of 1.05×HBS-Mg buffer (262.5 mM BioUltra Hepes, pH 7.5, 157.5 mM NaCl, 105 mM MgCl2, 0.525 mM TCEP, […] Brij-35) was prepared and filter sterilized using a 0.22 μm bottle top filter. Approximately 50 mL of 1.05×HBS-Mg buffer was removed and saved for future dilutions. A 50 mL aliquot of DMSO (Sigma Aldrich DMSO Lot. #SHBK2079) was added and continued to stir for 10 minutes, creating the final 1.0×HBS-Mg buffer (250 mM BioUltra Hepes pH 7.5, 150 mM NaCl, 100 mM MgCl2, 0.5 mM TCEP, 0.03% Brij-35). Biacore T200 instrument was primed using 1.0×HBS-Mg buffer before docking a GE Streptavidin (SA) chip and then primed two additional times prior to beginning the immobilization step. All immobilized protein mixtures were created using 3-5 mg/mL Biotinylated Avidin-tagged KRAS protein using the following immobilization settings: SA chip type, 1 flow cells per cycle, 720 second contact time, and 5 μL/min flow rate. Normalization of the detector was also performed during the immobilization step using the GE BiaNormalize solution. All compounds were diluted to 10 mM in 100% DMSO prior to being diluted 20× in 1.05× buffer. Another 10× dilution was created using 1.0× buffer prior to performing a series of 3× dilutions to create a compound concentration curve using the following assay settings: 20 C analysis temperature, General Settings=10 Hz data collection rate and multi-detection; Assay Steps=all set to LMW kinetics; Cycle Types=LMW kinetics (60s contact time, 120s dissociation time, 100 μL/min flow rate, extra wash after injection with 50% DMSO, flow path 1,2,3,4); Flow path detection=2-1, 4-3). Data evaluation was performed using the Biacore T200 Evaluation software and data fit to 1:1 binding model.
Target sequence in this assay (P01116 1-188 isoform P01116-2 G12D): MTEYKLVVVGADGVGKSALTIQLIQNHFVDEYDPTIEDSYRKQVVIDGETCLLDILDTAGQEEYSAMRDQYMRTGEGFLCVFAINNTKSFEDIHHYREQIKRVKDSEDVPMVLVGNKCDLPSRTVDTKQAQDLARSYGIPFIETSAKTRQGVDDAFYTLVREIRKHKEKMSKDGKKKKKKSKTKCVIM

KRas G12D [2] = biological target: T1, KRas G12D; experiment: KRas G12D Binding Assay (TR-FRET displacement of labeled tracer); set-up: corresponding to amino acids 1:169, produced at Array BioPharma; biotin (protein is biotinylated); conditions: TR-FRET displacement of Cy5 labelled tracer, biotinylated GDP-loaded KRAS G12D (aa 1:169), 60 minute incubation at 22° C.
Procedure, shortened: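 Biotinylated GDP-loaded human KRAS G12D (aa 1–169) incubated with Cy5 tracer, Eu-streptavidin and compound (2% DMSO final) in 50 mM HEPES pH 7.5, 5 mM MgCl2, 0.005% Tween-20, 1 mM DTT, 60 min at 22 °C. TR-FRET ratio converted to percent of control; IC50 at 50 POC from 4-parameter logistic fit.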
Target sequence in this assay (P01116 1-169 isoform P01116-2 G12D): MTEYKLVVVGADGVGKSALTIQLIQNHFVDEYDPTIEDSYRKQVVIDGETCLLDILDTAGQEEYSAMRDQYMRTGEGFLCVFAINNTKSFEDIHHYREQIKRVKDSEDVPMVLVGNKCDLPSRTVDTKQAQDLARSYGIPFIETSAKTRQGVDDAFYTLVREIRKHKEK

Row | Structure (SMILES) | Kd (KRas G12D [1]) | IC50 (KRas G12D [2])
1 | Cc1ccc2[nH]ncc2c1N1CCc2c(nc(OC[C@@H]3CCCN3C)nc2N2C[C@H]3CC[C@@H](C2)N3)C1 [Example 3, 4-((1R,5S)-3,8-diazabicyclo[3.2.1]octan-3-yl)-7-(5-methyl-1H-indazol-4-yl)-2-(((S)-1-methylpyrrolidin-2-yl)methoxy)-5,6,7,8-tetrahydropyrido[3,4-d]pyrimidine] | 6.37 µM | 1.32 µM
2 | COc1nc2c(c(N3C[C@H]4CC[C@@H](C3)N4)n1)CCN(c1cccc3cccc(C)c13)C2 [Example 22, 4-((1R,5S)-3,8-diazabicyclo[3.2.1]octan-3-yl)-2-methoxy-7-(8-methylnaphthalen-1-yl)-5,6,7,8-tetrahydropyrido[3,4-d]pyrimidine] | 302 µM | 7.86 µM
3 | CN1CCC[C@H]1COc1nc2c(c(N3C[C@H]4CC[C@@H](C3)N4)n1)CCN(c1c(F)c(O)c(F)c3ccccc13)C2 [Example 25, 4-(4-((1R,5S)-3,8-diazabicyclo[3.2.1]octan-3-yl)-2-(((S)-1-methylpyrrolidin-2-yl)methoxy)-5,8-dihydropyrido[3,4-d]pyrimidin-7(6H)-yl)-1,3-difluoronaphthalen-2-ol] | 0.847 µM | 6.79 µM
4 | CN1CCC[C@H]1COc1nc2c(c(N3C[C@H]4CC[C@@H](C3)N4)n1)CCN(C1CC(O)c3ccccc31)C2 (stereo partly drawn) [Example 35, 3-(4-((1R,5S)-3,8-diazabicyclo[3.2.1]octan-3-yl)-2-(((S)-1-methylpyrrolidin-2-yl)methoxy)-5,8-dihydropyrido[3,4-d]pyrimidin-7(6H)-yl)-2,3-dihydro-1H-inden-1-ol] | 570 µM | > 10 µM
5 | COC1CC(N2CCc3c(nc(OC[C@@H]4CCCN4C)nc3N3C[C@H]4CC[C@@H](C3)N4)C2)c2ccccc21 (stereo partly drawn) [Example 36, 4-((1R,5S)-3,8-diazabicyclo[3.2.1]octan-3-yl)-7-(3-methoxy-2,3-dihydro-1H-inden-1-yl)-2-(((S)-1-methylpyrrolidin-2-yl)methoxy)-5,6,7,8-tetrahydropyrido[3,4-d]pyrimidine] | 24.3 µM | > 10 µM
6 | CN1CCC[C@H]1COc1nc2c(c(N3C[C@H]4CC[C@@H](C3)N4)n1)CC(=O)N(Cc1ccccc1)C2 [Example 53, 7-benzyl-4-((1R,5S)-3,8-diazabicyclo[3.2.1]octan-3-yl)-2-(((S)-1-methylpyrrolidin-2-yl)methoxy)-7,8-dihydropyrido[3,4-d]pyrimidin-6(5H)-one] | > 1000 µM | 5.26 µM
7 | CN1CCC[C@H]1COc1nc2c(c(N3C[C@H]4CC[C@@H](C3)N4)n1)CCN(c1cncc3ccccc13)C2 [Example 57, 4-((1R,5S)-3,8-diazabicyclo[3.2.1]octan-3-yl)-7-(isoquinolin-4-yl)-2-(((S)-1-methylpyrrolidin-2-yl)methoxy)-5,6,7,8-tetrahydropyrido[3,4-d]pyrimidine] | 98.5 µM | > 10 µM
8 | CN1CCC[C@H]1COc1nc2c(c(N3C[C@H]4CC[C@@H](C3)N4)n1)CCN(c1nc(N)nc3ccccc13)C2 [Example 59, 4-(4-((1R,5S)-3,8-diazabicyclo[3.2.1]octan-3-yl)-2-(((S)-1-methylpyrrolidin-2-yl)methoxy)-5,8-dihydropyrido[3,4-d]pyrimidin-7(6H)-yl)quinazolin-2-amine] | 598 µM | 7.5 µM
9 | Cc1c(O)cc(N2CCc3c(nc(OC[C@@H]4CCCN4C)nc3N3C[C@H]4CC[C@@H](C3)N4)C2)c2ccccc12 [Example 69, 4-(4-((1R,5S)-3,8-diazabicyclo[3.2.1]octan-3-yl)-2-(((S)-1-methylpyrrolidin-2-yl)methoxy)-5,8-dihydropyrido[3,4-d]pyrimidin-7(6H)-yl)-1-methylnaphthalen-2-ol] | 38.4 µM | > 10 µM
10 | CN1CCC[C@H]1COc1nc2c(c(N3C[C@H]4CC[C@@H](C3)N4)n1)CCN(c1cccc3ccccc13)C2 [Example 70, 4-((1R,5S)-3,8-diazabicyclo[3.2.1]octan-3-yl)-2-(((S)-1-methylpyrrolidin-2-yl)methoxy)-7-(naphthalen-1-yl)-5,6,7,8-tetrahydropyrido[3,4-d]pyrimidine] | 2.1 µM | 1.12 µM

From US12686692B2, “KRas G12D inhibitors” (Mirati Therapeutics, Inc., priority 2020, dated 2026)
